Where “and” joins values, the source holds several entries; their conditions need not be identical. Identical values can stand only once. Where a SMILES comes first, the peptide text is derived from it. [ ]: non-standard residue; d: D form. Cit = NC(=O)NCCC[C@H](N)C(=O)O
Legend:
[1] = test system: ACPA pool I (affinity purified human anti-CCP2 IgG); test: ACPA competition assay: peptide pre-incubated with ACPA, then anti-CCP2 ELISA (CCPlus); type: binding; details: for maximum ACPA blocking (inhibition of anti-CCP2 reactivity): ACPA pool I 1.2 μg/ml (8 nM IgG), peptide 0.016-320 nmol in 225 μl, 1 h room temperature before CCP2 ELISA, mean of 2-7 experiments; for IC50: ACPA pool I 1.2 μg/ml, 1 h room temperature pre-incubation, mean ± SEM, n given per value (n = 2-6), GraphPad Prism, read-out: IC50 of ACPA blocking (relative IC50)
Description: (§1) ACPA were affinity purified as recently described. Two different ACPA pools were prepared for the competition assays: ACPA pool I, containing autoantibodies purified from 11 plasma or serum samples (plasma n = 4, sera n = 7); and ACPA pool II, containing 39 plasma or serum samples (plasma n = 38, serum n = 1). Before pooling, each purified ACPA sample was individually tested by in house ELISA for immunoreactivity to fibrinogen Cit573 and citrullinated fibrinogen 36-52 [24]. Anti-CCP2 reactivity was determined using the Immunoscan CCPlus® assay. All pooled samples were CCP2 positive.
(§2) ACPA pools I and II were used at a concentration of 1.2 μg/ml (8 nM IgG). The autoantibodies were incubated with the fibrinogen and fibrinogen-derived peptides at room temperature for one hour. The mole quantities of peptides tested were: 0.016, 0.16, 1.6, 16, 22, 49, 60, 80, 120, 160, 216, and 320 nmol in an incubation volume of 225 μl. ACPA blocking by the fibrinogen peptides was subsequently assessed by measuring the remaining anti-CCP2 reactivity. Cit573 and Cit591 were equally combined and co-tested for ACPA blocking. Arginine peptides (573, 591, 72, and 74) were used as negative controls in all assays.
(§3) To further explore the blocking potential of Cit573, a retrieval assay was performed, that is, the ability of the peptide to compete with already CCP2-bound ACPA was tested. ACPA pool I was added to the CCP2 plate and incubated for one hour at room temperature, followed by the addition of the peptides (citrulline and unmodified peptides) at mole quantities ranging from 16 to 320 nmol. ACPA pools incubated with no peptide were defined as positive control, giving the maximum values of anti-CCP2 reactivity. Arbitrary units were calculated according to the standard curve given by the ELISA kit. Each experiment had one standard curve. Mean values were calculated and results are expressed as a function of percentage of inhibition of ACPA from the peptide amount (nmol).
(§4) Results are presented as mean ± standard error (SEM) of values (two to seven experiments per ACPA pool), and were compared using the Student’s t-test for unpaired comparisons using GraphPad Prism 6 software (La Jolla, CA, USA). Median values were also calculated in order to consider non-Gaussian distributions. As the mean and median values were generally coincident, the Mann-Whitney U test was not selected for statistical analysis. P <0.05 was assumed to denote a significant difference. Relative IC50 values (IC50 definition according to International Union of Pharmacology Committee on Receptor Nomenclature and Drug Classification – ‘the molar concentration of an antagonist that reduces the response to an agonist by 50 %’ [25]) were also calculated using GraphPad Prism 6 software. Cutoffs for the ISAC system chip data were calculated as the 98th percentile reactivity among the 461 EIRA controls investigated in parallel to the 927 RA patients.

[2] = test system: ACPA pool II (affinity purified human anti-CCP2 IgG); test: as above; type: binding; details: for maximum ACPA blocking (inhibition of anti-CCP2 reactivity): ACPA pool II 1.2 μg/ml (8 nM IgG), peptide 0.016-320 nmol in 225 μl, 1 h room temperature before CCP2 ELISA, mean of 2-7 experiments; for IC50: ACPA pool II 1.2 μg/ml, 1 h room temperature pre-incubation, mean ± SEM, n given per value (n = 2-4), GraphPad Prism, read-out: IC50 of ACPA blocking (relative IC50)
Description: as §1, §2, §3, §4

[3] = test system: sera from RA patients (EIRA cohort); test: Peptide microarray (ImmunoCAP ISAC), immune reactivity of sera against the fibrinogen peptides; type: binding, human; details: for positive immune reactivity among anti-CCP2-positive RA patients: 402 CCP2-positive RA sera; for positive immune reactivity among anti-CCP2-positive RA patients / positive immune reactivity among anti-CCP2-negative RA patients: cutoff 98th percentile of healthy controls; for positive immune reactivity among anti-CCP2-negative RA patients: 525 CCP2-negative RA sera; for diagnostic sensitivity among all 927 RA patients: share of sera positive, Arg control intensity subtracted, cutoff 98th percentile of 461 healthy controls (98 % specificity)
Description: Serum from 927 RA patients (newly diagnosed patients within 12 months of appearance of first symptoms; 402 CCP2 positive and 525 CCP2 negative) and 461 healthy controls from the Epidemiological Investigation of RA (EIRA) case-control cohort were collected. Control samples were randomly chosen from the Swedish population registry, matching for age, sex, and residential area. All serum and plasma samples were stored at −70 °C prior to analysis. All patients fulfilled the American College of Rheumatology-European League Against Rheumatism criteria for RA [20]. CCP2-positive RA individuals used for ACPA affinity purification were selected based on having high anti-CCP2 antibody levels (>300 AU/ml, Immunoscan CCPlus® assay, Euro-Diagnostica AB, Sweden). All patients gave written informed consent. This study was approved by the regional ethical committee at the Karolinska Institutet (96-174), and performed in accordance with the Declaration of Helsinki.
Peptide microarray was performed as previously described. Briefly, peptides (sequences in Table 1) were immobilized onto a chemically modified glass slide, sera from RA patients and healthy controls were applied into the reactions sites, and fluorescence intensity after incubation with anti-human IgG antibody was acquired in a laser scanner (LuxScan 10K, CapitalBio, Beijing, China). Final results for each citrullinated peptide were calculated by subtracting the intensity values of the corresponding arginine-containing control from the citrullinated peptide for all RA patients and controls. Cutoff values were determined as the 98th percentile of the healthy control responses. Microarray data are available in the ArrayExpress database under accession number [EMBL:E-MTAB-3606].
as §4

[4] = test system: ACPA pool I bound to CCP2 plate; test: Retrieval assay: peptide competes with already CCP2-bound ACPA; type: binding, human; details: ACPA pool I bound to CCP2 plate 1 h room temperature, then peptide 16-320 nmol; data not shown
Description: as §3

Structure (SMILES)	maximum ACPA blocking (inhibition of anti-CCP2 reactivity) [1]	maximum ACPA blocking (inhibition of anti-CCP2 reactivity) ([1]; listed as cyclic form of the Cit573 peptide)	IC50 [1]	maximum ACPA blocking (inhibition of anti-CCP2 reactivity) [2]	IC50 [2]	positive immune reactivity among anti-CCP2-positive RA patients [3]	positive immune reactivity among anti-CCP2-negative RA patients [3]	diagnostic sensitivity among all 927 RA patients [3]	ACPA binding to the CCP2 ELISA plate reverted (retrieval) [4]
CC[C@H](C)[C@@H]1NC(=O)CNC(=O)[C@@H]2CCCN2C(=O)[C@H](Cc2c[nH]cn2)NC(=O)[C@H](Cc2c[nH]cn2)NC(=O)[C@H](CS)NC(=O)[C@H](Cc2ccccc2)NC(=O)[C@H](CCC(N)=O)NC(=O)[C@H](CCCCN)NC(=O)[C@H](CO)NC(=O)[C@H](Cc2ccc(O)cc2)NC(=O)[C@H](CO)NC(=O)[C@H](CO)NC(=O)[C@H](CO)NC(=O)[C@H](CCCCN)NC(=O)CNC(=O)[C@H](CCCNC(N)=O)NC(=O)[C@H](CO)NC(=O)[C@@H]2CCCN2C(=O)[C@H](Cc2ccccc2)NC(=O)[C@H](CCC(=O)O)NC(=O)[C@H](C)NC1=O [Cit573Cyc] (cyclo(CHHPGIAEFPS[Cit]GKSSSYSKQF))	92%	approximately 90%	28 µM	approximately 90%					
CC[C@H](C)[C@H](NC(=O)CN)C(=O)N[C@@H](C)C(=O)N[C@@H](CCC(=O)O)C(=O)N[C@@H](Cc1ccccc1)C(=O)N1CCC[C@H]1C(=O)N[C@@H](CO)C(=O)N[C@@H](CCCNC(N)=O)C(=O)NCC(=O)N[C@@H](CCCCN)C(=O)N[C@@H](CO)C(=O)N[C@@H](CO)C(=O)N[C@@H](CO)C(=O)N[C@@H](Cc1ccc(O)cc1)C(=O)N[C@@H](CO)C(=O)O [Cit573Lin1] (H-GIAEFPS[Cit]GKSSSYS-OH; N-terminus assumed)	75%		51 µM	47%	186 µM				
C[C@H](N)C(=O)N[C@@H](CCC(=O)O)C(=O)N[C@@H](Cc1ccccc1)C(=O)N1CCC[C@H]1C(=O)N[C@@H](CO)C(=O)N[C@@H](CCCNC(N)=O)C(=O)NCC(=O)N[C@@H](CCCCN)C(=O)N[C@@H](CO)C(=O)N[C@@H](CO)C(=O)N[C@@H](CO)C(=O)O [Cit573Lin2] (H-AEFPS[Cit]GKSSS-OH; N-terminus assumed)	69%		123 µM	40%	105 µM				
CC[C@H](C)[C@H](NC(=O)CNC(=O)[C@@H]1CCCN1C(=O)[C@H](Cc1c[nH]cn1)NC(=O)[C@@H](N)Cc1c[nH]cn1)C(=O)N[C@@H](C)C(=O)N[C@@H](CCC(=O)O)C(=O)N[C@@H](Cc1ccccc1)C(=O)N1CCC[C@H]1C(=O)N[C@@H](CO)C(=O)N[C@@H](CCCNC(N)=O)C(=O)NCC(=O)N[C@@H](CCCCN)C(=O)N[C@@H](CO)C(=O)N[C@@H](CO)C(=O)N[C@@H](CO)C(=O)N[C@@H](Cc1ccc(O)cc1)C(=O)N[C@@H](CO)C(=O)N[C@@H](CCCCN)C(=O)N[C@@H](CCC(N)=O)C(=O)N[C@@H](Cc1ccccc1)C(=O)O [Cit573] (H-HHPGIAEFPS[Cit]GKSSSYSKQF-OH)	84%		59 µM	Approximately 50%	548 µM	65% and 65.4%	5% and 5.5%	31.5%	80%
C[C@@H](O)[C@H](NC(=O)[C@H](CO)NC(=O)[C@H](CC(=O)O)NC(=O)CNC(=O)[C@H](CCCNC(N)=O)NC(=O)[C@H](CC(N)=O)NC(=O)[C@H](Cc1ccc(O)cc1)NC(=O)[C@H](CO)NC(=O)[C@@H](NC(=O)[C@H](CO)NC(=O)[C@H](CO)NC(=O)[C@@H](NC(=O)[C@H](Cc1ccccc1)NC(=O)[C@H](CCC(N)=O)NC(=O)[C@H](CCCCN)NC(=O)[C@@H](N)CO)[C@@H](C)O)[C@@H](C)O)C(=O)N[C@@H](Cc1ccccc1)C(=O)N[C@@H](CCC(=O)O)C(=O)N[C@@H](CO)C(=O)N[C@@H](CCCCN)C(=O)N[C@@H](CO)C(=O)O [Cit591] (H-SKQFTSSTSYN[Cit]GDSTFESKS-OH)	63%		194 µM		412 µM	15% and 14.7%	6% and 6.1%	9.8%	

— article PMC4484629, “Targeting of anti-citrullinated protein/peptide antibodies in rheumatoid arthritis using peptides mimicking endogenously citrullinated fibrinogen antigens” (Arthritis Research & Therapy, 2015)
